The test system of the data set is rodent carcinogenicity bioassays, tumor incidence. The experiment in a line: CCRIS carcinogenicity studies. Summed up:
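Archive of carcinogenicity, mutagenicity, tumor promotion and tumor inhibition results drawn from journals, NCI reports and other sources, expert-reviewed; covers 1985-2011 and is no longer updated.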

Calls of active or inactive are those of the source. How the calls were made is not given here.

On to `O=C(O)CCCc1ccc(N(CCCl)CCCl)cc1`, for which the carcinogen call runs as follows: (Species: HUMAN, Route: ORAL, Tumor Site: Type of Lesion: HEMATOPOIETIC SYSTEM (LEUKEMIA)) “active; positive”; (Species: MOUSE, Strain/Sex: BALB/FEMALE, Route: INTRAGASTRIC, Dose: 0, 1 MG/KG SUSPENDED IN WATER 5/WK FOR 12 WK (STUDY DURATION: 120 WK), Tumor Site: Type of Lesion: LUNG: ADENOMA) “active; positive”; (Species: MOUSE, Strain/Sex: BALB/FEMALE, Route: INTRAGASTRIC, Dose: 0, 1 MG/KG SUSPENDED IN WATER 5/WK FOR 12 WK (STUDY DURATION: 120 WK), Tumor Site: Type of Lesion: LYMPHORETICULAR SYSTEM: TUMOR) “active; positive”; (Species: MOUSE, Strain/Sex: BALB/FEMALE, Route: INTRAGASTRIC, Dose: 0, 1 MG/KG SUSPENDED IN WATER 5/WK FOR 12 WK (STUDY DURATION: 120 WK), Tumor Site: Type of Lesion: MAMMARY GLAND: ADENOMA OR ADENOCANTHOMA) “active; positive”; (Species: MOUSE, Strain/Sex: BALB/MALE, Route: INTRAGASTRIC, Dose: 0, 1 MG/KG SUSPENDED IN WATER 5/WK FOR 12 WK (STUDY DURATION: 120 WK), Tumor Site: Type of Lesion: LUNG: ADENOMA) “active; positive”; (Species: MOUSE, Strain/Sex: BALB/MALE, Route: INTRAGASTRIC, Dose: 0, 1 MG/KG SUSPENDED IN WATER 5/WK FOR 12 WK (STUDY DURATION: 120 WK), Tumor Site: Type of Lesion: LYMPHORETICULAR SYSTEM: TUMOR) “active; positive”. For the same compound, the carcinogen call is “active; positive” (Species: MOUSE, Strain/Sex: STRAIN-A/MALE,FEMALE, Route: INTRAPERITONEAL, Dose: 9.6, 37, 150, 420 MG/KG (TOTAL DOSES) IN 0.5% ACACIA OR 0.01% TRICAPRYLIN SOLN 3/WK FOR 4 WK, Dose: 9.6, 37, 150, 420 MG/KG (TOTAL DOSES) IN 0.5% ACACIA OR 0.01% TRICAPRYLIN SOLN 3/WK FOR 4 WK, Tumor Site: Type of Lesion: LUNG: ADENOMA, ADENOCARCINOMA); “active; positive” (Species: MOUSE, Strain/Sex: SWISS/FEMALE, Route: INTRAPERITONEAL, Dose: 1.5, 3.0 MG/KG 3/WK FOR 6 MO, Tumor Site: Type of Lesion: LUNG: ADENOMA, LYMPHATIC SYSTEM: LYMPHOSARCOMA, OVARIES, Tumor Site: Type of Lesion: LUNG: ADENOMA, LYMPHATIC SYSTEM: LYMPHOSARCOMA, OVARIES); “active; positive” (Species: MOUSE, Strain/Sex: SWISS/MALE, Route: INTRAPERITONEAL, Dose: 1.5, 3.0 MG/KG 3/WK FOR 6 MO, Tumor Site: Type of Lesion: HEMATOPOIETIC SYSTEM (LEUKEMIA), LYMPHATIC SYSTEM: LYMPHOSARCOMA, LUNG: ADENOMA, Tumor Site: Type of Lesion: HEMATOPOIETIC SYSTEM (LEUKEMIA), LYMPHATIC SYSTEM: LYMPHOSARCOMA, LUNG: ADENOMA); “active; positive” (Species: RAT, Strain/Sex: CD-1/MALE, Route: INTRAPERITONEAL, Dose: 2.2, 4.5 MG/KG 3/WK FOR 6 MO, Tumor Site: Type of Lesion: HEMATOPOIETIC SYSTEM (LEUKEMIA), LYMPHATIC SYSTEM: LYMPHOSARCOMA, RETICULAR CELL SARCOMA); “active; positive” (Species: RAT, Strain/Sex: SPRAGUE-DAWLEY/FEMALE, Route: GAVAGE, Dose: 0, 3 MG/KG ADMINISTERED 1, 2, 4.5 OR 9 TIMES PER MO FOR 18 MO TO GIVE MEDIAN TOTAL DOSES OF 54, 108, 234, 425 MG/KG (STU, Dose: 0, 3 MG/KG ADMINISTERED 1, 2, 4.5 OR 9 TIMES PER MO FOR 18 MO TO GIVE MEDIAN TOTAL DOSES OF 54, 108, 234, 425 MG/KG (STU, Tumor Site: Type of Lesion: MAMMARY GLAND: TUMOR, NERVOUS SYSTEM: TUMOR, EAR CANAL: TUMOR, Tumor Site: Type of Lesion: MAMMARY GLAND: TUMOR, NERVOUS SYSTEM: TUMOR, EAR CANAL: TUMOR).
On to `C=C1C/C(=C/C)C(=O)O[C@@H]2CCN3CC=C(COC(=O)[C@@]1(O)CO)[C@H]23`, for which the carcinogen call is “active; positive” (Species: MOUSE, Strain/Sex: B6C3F1/FEMALE, Route: GAVAGE, Dose: 0, 3 MG/KG IN 0.1 M PHOSPHATE BUFFER 5 D/WK FOR 105 WK (STUDY DURATION: 105 WK), Tumor Site: Type of Lesion: LUNG (ALVEOLAR/BRONCHIOLAR): ADENOMA, ADENOMA OR CARCINOMA); “active; positive” (Species: MOUSE, Strain/Sex: B6C3F1/MALE, Route: GAVAGE, Dose: 0, 0.1, 0.3, 1, 3 MG/KG IN 0.1 M PHOSPHATE BUFFER 5 D/WK FOR 105 WK (STUDY DURATION: 105 WK), Dose: 0, 0.1, 0.3, 1, 3 MG/KG IN 0.1 M PHOSPHATE BUFFER 5 D/WK FOR 105 WK (STUDY DURATION: 105 WK), Tumor Site: Type of Lesion: LIVER: HEMANGIOSARCOMA); “inactive; negative” (Species: RAT, Strain/Sex: F344/FEMALE, Route: GAVAGE, Dose: 0, 0.01, 0.033, 0.1, 0.33 MG/KG IN 0.1 M PHOSPHATE BUFFER 5 D/WK FOR 105 WK (STUDY DURATION: 105 WK), Dose: 0, 0.01, 0.033, 0.1, 0.33 MG/KG IN 0.1 M PHOSPHATE BUFFER 5 D/WK FOR 105 WK (STUDY DURATION: 105 WK)); “active; positive” (Species: RAT, Strain/Sex: F344/FEMALE, Route: GAVAGE, Dose: 0, 1 MG/KG IN 0.1 M PHOSPHATE BUFFER 5 D/WK FOR 97 WK (STUDY DURATION: 97 WK), Tumor Site: Type of Lesion: LIVER: HEMANGIOSARCOMA, HEPATOCELLULAR ADENOMA, ADENOMA OR CARCINOMA, HEMATOPOIETIC SYSTEM: MONONUCLEAR CELL LEUKEMIA); “active; positive” (Species: RAT, Strain/Sex: F344/MALE, Route: GAVAGE, Dose: 0, 1 MG/KG IN 0.1 M PHOSPHATE BUFFER 5 D/WK FOR 72 WK (STUDY DURATION: 72 WK), Tumor Site: Type of Lesion: LIVER: HEMANGIOSARCOMA, HEPATOCELLULAR ADENOMA, HEMATOPOIETIC SYSTEM: MONONUCLEAR CELL LEUKEMIA).
Consider `CCCCN(N=O)C(CCC)OC(C)=O` (centres undefined), for which the carcinogen call runs as follows: (Species: RAT, Strain/Sex: F344/FEMALE, Route: SUBCUTANEOUS, Dose: 38 UMOL/KG IN OLIVE OIL 1/WK FOR 10 WK, Tumor Site: Type of Lesion: INJECTION SITE: MALIGNANT FIBROUS HISTIOCYTOMA) “active; positive”; (Species: RAT, Strain/Sex: F344/MALE, Route: SUBCUTANEOUS, Dose: 38 UMOL/KG IN OLIVE OIL 1/WK FOR 10 WK, Tumor Site: Type of Lesion: INJECTION SITE: MALIGNANT FIBROUS HISTIOCYTOMA, LUNG: ADENOMA) “active; positive”.
`FC(F)(Cl)Cl`: the carcinogen call reads like this: (Species: MOUSE, Strain/Sex: SWISS/FEMALE, Route: INHALATION, Dose: 0, 1000, 5000 PPM 4 HR/D 5 D/WK FOR 78 WK (STUDY DURATION: LIFETIME), Dose: 0, 1000, 5000 PPM 4 HR/D 5 D/WK FOR 78 WK (STUDY DURATION: LIFETIME)) “inactive; negative”; (Species: MOUSE, Strain/Sex: SWISS/MALE, Route: INHALATION, Dose: 0, 1000, 5000 PPM 4 HR/D 5 D/WK FOR 78 WK (STUDY DURATION: LIFETIME), Dose: 0, 1000, 5000 PPM 4 HR/D 5 D/WK FOR 78 WK (STUDY DURATION: LIFETIME)) “inactive; negative”; (Species: RAT, Strain/Sex: SPRAGUE-DAWLEY/FEMALE, Route: INHALATION, Dose: 0, 1000, 5000 PPM 4 HR/D 5 D/WK FOR 104 WK (STUDY DURATION: LIFETIME), Dose: 0, 1000, 5000 PPM 4 HR/D 5 D/WK FOR 104 WK (STUDY DURATION: LIFETIME)) “inactive; negative”; (Species: RAT, Strain/Sex: SPRAGUE-DAWLEY/FEMALE, Route: INHALATION, Dose: 0, 1000, 5000 PPM IN AIR 4 HR/D 5 D/WK FOR 104 WK (STUDY DURATION: LIFETIME), Dose: 0, 1000, 5000 PPM IN AIR 4 HR/D 5 D/WK FOR 104 WK (STUDY DURATION: LIFETIME), Tumor Site: Type of Lesion: [BRAIN WAS ONLY SITE EVALUATED]) “inactive; negative”; (Species: RAT, Strain/Sex: SPRAGUE-DAWLEY/MALE, Route: INHALATION, Dose: 0, 1000, 5000 PPM 4 HR/D 5 D/WK FOR 104 WK (STUDY DURATION: LIFETIME), Dose: 0, 1000, 5000 PPM 4 HR/D 5 D/WK FOR 104 WK (STUDY DURATION: LIFETIME)) “inactive; negative”; (Species: RAT, Strain/Sex: SPRAGUE-DAWLEY/MALE, Route: INHALATION, Dose: 0, 1000, 5000 PPM IN AIR 4 HR/D 5 D/WK FOR 104 WK (STUDY DURATION: LIFETIME), Dose: 0, 1000, 5000 PPM IN AIR 4 HR/D 5 D/WK FOR 104 WK (STUDY DURATION: LIFETIME), Tumor Site: Type of Lesion: [BRAIN WAS ONLY SITE EVALUATED]) “inactive; negative”.

The record behind these values is PubChem BioAssay AID1259411 (Chemical Carcinogenesis Research Information System (CCRIS), 2018).
